Several values for one entry are separate records, joined by “and”; a condition that tells them apart may be missing. Equal values may be shown once. Records with an inconclusive call do not appear.
Tested on: Lewis lung carcinoma i.m., BDF1 mice, T/C %
Assay: NCI In Vivo Anticancer Drug Screen. Data for tumor model Lewis Lung Carcinoma (intramuscular) in B6D2F1 (BDF1) mice
Outline: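 Tumour-bearing mice were dosed with compound, and either their survival or their tumour size was measured. Results were expressed relative to vehicle-treated controls as T/C.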

[1] = endpoint: median survival time, dose: 4.0 mg/kg/injection, schedule: Q01DX009 (ip), vehicle: water, higher = longer survival
[2] = endpoint: median survival time, dose: 8.0 mg/kg/injection, schedule: Q01DX009 (ip), vehicle: water, higher = longer survival
[3] = endpoint: median survival time, dose: 64.0 mg/kg/injection, schedule: Q01DX009 (ip), vehicle: water, higher = longer survival

CCOC(=O)C(CS)NC(=O)CCNC(C)=O (configuration not stated)
T/C [1]: 109 % of control | T/C [2]: 119 % of control | T/C (endpoint: median survival time, dose: 32.0 mg/kg/injection, schedule: Q01DX009 (ip), vehicle: water, higher = longer survival): 113 % of control | T/C [3]: 124 % of control

OCC1OC(n2cnc3c(Cl)ncnc32)C(O)C1O (configuration not stated)
T/C (endpoint: mean tumor weight (est.), dose: 25.0 mg/kg/injection, schedule: Q01DX011 (ip), vehicle: saline, higher = larger tumour): 121 % of control | T/C (endpoint: mean tumor weight (est.), dose: 50.0 mg/kg/injection, schedule: Q01DX011 (ip), vehicle: saline, higher = larger tumour): 91 % of control | T/C (endpoint: mean tumor weight (est.), dose: 100.0 mg/kg/injection, schedule: Q01DX011 (ip), vehicle: saline, higher = larger tumour): 117 % of control | T/C (endpoint: mean tumor weight (est.), dose: 400.0 mg/kg/injection, schedule: Q01DX011 (ip), vehicle: saline, higher = larger tumour): 94 % of control | T/C (endpoint: mean tumor weight, dose: 25.0 mg/kg/injection, schedule: Q01DX011 (ip), vehicle: Klucel (hydroxypropylcellulose) (HPC), higher = larger tumour): 44 % of control | T/C (endpoint: mean tumor weight, dose: 200.0 mg/kg/injection, schedule: Q01DX011 (ip), vehicle: Klucel (hydroxypropylcellulose) (HPC), higher = larger tumour): 88 % of control | T/C (endpoint: median survival time, dose: 25.0 mg/kg/injection, schedule: Q01DX011 (ip), vehicle: saline, higher = longer survival): 100 % of control | T/C (endpoint: median survival time, dose: 25.0 mg/kg/injection, schedule: Q01DX012 (ip), vehicle: Klucel (hydroxypropylcellulose) (HPC), higher = longer survival): 95 % of control | T/C (endpoint: median survival time, dose: 100.0 mg/kg/injection, schedule: Q01DX011 (ip), vehicle: saline, higher = longer survival): 98 % of control | T/C (endpoint: median survival time, dose: 200.0 mg/kg/injection, schedule: Q01DX012 (ip), vehicle: Klucel (hydroxypropylcellulose) (HPC), higher = longer survival): 104 % of control | T/C (endpoint: median survival time, dose: 400.0 mg/kg/injection, schedule: Q01DX011 (ip), vehicle: saline, higher = longer survival): 92 % of control

CN(C)C(=O)c1cccc(COc2ccc(N3C(N)=NC(N)=NC3(C)C)cc2Cl)c1
T/C (endpoint: mean tumor weight, dose: 3.13 mg/kg/injection, schedule: Q01DX011 (ip), vehicle: saline, higher = larger tumour): 66 % of control | T/C (endpoint: mean tumor weight, dose: 12.5 mg/kg/injection, schedule: Q01DX011 (ip), vehicle: saline, higher = larger tumour): 66 % of control | T/C (endpoint: median survival time, dose: 3.13 mg/kg/injection, schedule: Q01DX011 (ip), vehicle: saline, higher = longer survival): 103 % of control | T/C (endpoint: median survival time, dose: 12.5 mg/kg/injection, schedule: Q01DX011 (ip), vehicle: saline, higher = longer survival): 88 % of control

CC/C(=C(/CC)c1ccc(O)cc1)c1ccc(O)cc1
T/C (endpoint: mean tumor weight, dose: 25.0 mg/kg/injection, schedule: Q01DX011 (ip), vehicle: steriod suspending solution, higher = larger tumour): 43 % of control | T/C (endpoint: mean tumor weight, dose: 50.0 mg/kg/injection, schedule: Q01DX011 (ip), vehicle: steriod suspending solution, higher = larger tumour): 29 % of control | T/C (endpoint: mean tumor weight, dose: 100.0 mg/kg/injection, schedule: Q01DX011 (ip), vehicle: steriod suspending solution, higher = larger tumour): 14 % of control and 34 % of control | T/C (endpoint: median survival time, dose: 25.0 mg/kg/injection, schedule: Q01DX011 (ip), vehicle: steriod suspending solution, higher = longer survival): 86 % of control | T/C (endpoint: median survival time, dose: 25.0 mg/kg/injection, schedule: Q01DX011 (ip), vehicle: water, higher = longer survival): 91 % of control and 97 % of control | T/C (endpoint: median survival time, dose: 50.0 mg/kg/injection, schedule: Q01DX011 (ip), vehicle: steriod suspending solution, higher = longer survival): 106 % of control | T/C (endpoint: median survival time, dose: 50.0 mg/kg/injection, schedule: Q01DX011 (ip), vehicle: water, higher = longer survival): 92 % of control | T/C (endpoint: median survival time, dose: 100.0 mg/kg/injection, schedule: Q01DX011 (ip), vehicle: steriod suspending solution, higher = longer survival): 104 % of control | T/C (endpoint: median survival time, dose: 100.0 mg/kg/injection, schedule: Q01DX011 (ip), vehicle: water, higher = longer survival): 97 % of control and 101 % of control

CCOC(=O)c1nc(C)[nH]c(=O)c1C
T/C [1]: 94 % of control | T/C [2]: 109 % of control | T/C (endpoint: median survival time, dose: 16.0 mg/kg/injection, schedule: Q01DX009 (ip), vehicle: water, higher = longer survival): 104 % of control | T/C [3]: 100 % of control

From PubChem BioAssay AID272 (DTP/NCI, 2004)
